From patent US12435044B2, “Pyridazinone herbicides and pyridazinone intermediates used to prepare a herbicide” (FMC Corporation, priority 2018, dated 2025)

Key:
Type in all cases: in vivo
[1] = tested on: foxtail, green (Setaria viridis); experiment: Test E pre-/postemergence greenhouse test; conditions: Preemergence
Summary of the method: (§1)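 Visual control ratings on a 0–100 scale (0 = no effect, 100 = complete control), scored versus untreated controls 14 to 21 d after treatment. Preemergence: silt loam soil. Postemergence: plants at 2 to 18 cm, 1- to 4-leaf stage, in peat-based potting mix.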

[2] = tested on: poinsettia, wild (Euphorbia heterophylla); experiment: Test E pre-/postemergence greenhouse test
Summary of the method: as §1

[3] = tested on: ryegrass, Italian (Lolium multiflorum); experiment: Test E pre-/postemergence greenhouse test
Summary of the method: as §1

[4] = tested on: goosegrass (Eleusine indica); experiment: Test E pre-/postemergence greenhouse test; conditions: Preemergence
Summary of the method: as §1

[5] = tested on: dayflower, VA (Virginia (VA) dayflower, Commelina virginica); experiment: Test E pre-/postemergence greenhouse test
Summary of the method: as §1

[6] = tested on: lambsquarters (Chenopodium album); experiment: Test E pre-/postemergence greenhouse test; conditions: Preemergence
Summary of the method: as §1

[7] = tested on: sandbur (southern sandbur, Cenchrus echinatus); experiment: Test E pre-/postemergence greenhouse test
Summary of the method: as §1

[8] = tested on: morningglory (Ipomoea coccinea); experiment: Test E pre-/postemergence greenhouse test; conditions: Preemergence
Summary of the method: as §1

[9] = tested on: palmer amaranth (AMAPA; Amaranthus palmeri); experiment: Test K pre-/postemergence, mixtures of Cpd. No. 20 with metribuzin or rimsulfuron
From the text: (§2) This test evaluated the effect of mixtures of Cpd. No. 20 with metribuzin or rimsulfuron on several plant species. Seeds of plant species selected from corn (ZEAMD; Zea mays, cv. ‘Pioneer 1184’), soybean (GLXMA; Glycine max, cv. Pioneer 35T58), giant foxtail (SETFA; Setaria faberi), palmer amaranth (AMAPA; Amaranthus palmeri), common waterhemp (AMATU; Amaranthus rudis), mare's tail (ERICA; Conyza canadensis), and common ragweed (AMBEL; Ambrosia artemisiifolia) were planted in pots containing Tama Silt Loam soil and treated preemergence with a directed soil spray using test chemicals formulated in a non-phytotoxic solvent mixture which included a surfactant.
(§3) At the same time, plants selected from these crop and weed species were planted in pots containing Redi-Earth® planting medium (Scotts Company, 14111 Scottslawn Road, Marysville, Ohio 43041) comprising spaghnum peat moss, vermiculite, wetting agent and starter nutrients and treated postemergence with test chemicals formulated in the same manner. Plants ranged in height from 2 to 10 cm and were in the one- to two-leaf stage for the postemergence treatment. Treated plants and untreated controls were maintained in a greenhouse for approximately 14-21 d, after which time all treated plants were compared to untreated controls and visually evaluated for injury. Plant response ratings, summarized in Tables K1 to K4, are based on a 0 to 100 scale where 0 is no effect and 100 is complete control. A dash (-) response means no test result. Test results are presented as a mean of 4 reps.

[10] = tested on: soybean (GLXMA; Glycine max, cv. Pioneer 35T58); experiment: as above
From the text: as §2, §3

[11] = tested on: common ragweed (AMBEL; Ambrosia artemisiifolia); experiment: as above
From the text: as §2, §3

Cc1ccc2ccc(C)c(-c3c(O)c(Cl)nn(C)c3=O)c2c1 [Cpd. No. 20, 6-chloro-4-(2,7-dimethyl-1-naphthalenyl)-5-hydroxy-2-methyl-3(2H)-pyridazinone]
Plant response rating, Foxtail, Green ([1]; 16 g ai/ha): 35 | Plant response rating, Foxtail, Green ([1]; 31 g ai/ha): 80 | Plant response rating, Foxtail, Green ([1]; 62 g ai/ha): 100 | Plant response rating, Foxtail, Green ([1]; 125 g ai/ha): 100 | Plant response rating, Poinsettia, Wild ([2]; Postemergence, 16 g ai/ha): 20 | Plant response rating, Poinsettia, Wild ([2]; Postemergence, 31 g ai/ha): 50 | Plant response rating, Poinsettia, Wild ([2]; Postemergence, 62 g ai/ha): 40 | Plant response rating, Poinsettia, Wild ([2]; Postemergence, 125 g ai/ha): 50 | Plant response rating, Poinsettia, Wild ([2]; Preemergence, 16 g ai/ha): 0 | Plant response rating, Poinsettia, Wild ([2]; Preemergence, 31 g ai/ha): 0 | Plant response rating, Poinsettia, Wild ([2]; Preemergence, 62 g ai/ha): 0 | Plant response rating, Poinsettia, Wild ([2]; Preemergence, 125 g ai/ha): 0 | Plant response rating, Ryegrass, Italian ([3]; Postemergence, 16 g ai/ha): 70 | Plant response rating, Ryegrass, Italian ([3]; Postemergence, 31 g ai/ha): 80 | Plant response rating, Ryegrass, Italian ([3]; Postemergence, 62 g ai/ha): 85 | Plant response rating, Ryegrass, Italian ([3]; Postemergence, 125 g ai/ha): 90 | Plant response rating, Ryegrass, Italian ([3]; Preemergence, 16 g ai/ha): 0 | Plant response rating, Ryegrass, Italian ([3]; Preemergence, 31 g ai/ha): 25 | Plant response rating, Ryegrass, Italian ([3]; Preemergence, 62 g ai/ha): 98 | Plant response rating, Ryegrass, Italian ([3]; Preemergence, 125 g ai/ha): 95 | Plant response rating, Goosegrass ([4]; 16 g ai/ha): 0 | Plant response rating, Goosegrass ([4]; 31 g ai/ha): 0 | Plant response rating, Goosegrass ([4]; 62 g ai/ha): 30 | Plant response rating, Goosegrass ([4]; 125 g ai/ha): 75 | Plant response rating, Dayflower, VA ([5]; Postemergence, 16 g ai/ha): 30 | Plant response rating, Dayflower, VA ([5]; Postemergence, 31 g ai/ha): 50 | Plant response rating, Dayflower, VA ([5]; Postemergence, 62 g ai/ha): 60 | Plant response rating, Dayflower, VA ([5]; Postemergence, 125 g ai/ha): 70 | Plant response rating, Dayflower, VA ([5]; Preemergence, 16 g ai/ha): 0 | Plant response rating, Dayflower, VA ([5]; Preemergence, 31 g ai/ha): 0 | Plant response rating, Dayflower, VA ([5]; Preemergence, 62 g ai/ha): 0 | Plant response rating, Dayflower, VA ([5]; Preemergence, 125 g ai/ha): 5 | Plant response rating, Lambsquarters ([6]; 16 g ai/ha): 80 | Plant response rating, Lambsquarters ([6]; 31 g ai/ha): 95 | Plant response rating, Lambsquarters ([6]; 62 g ai/ha): 98 | Plant response rating, Lambsquarters ([6]; 125 g ai/ha): 100 | Plant response rating, Sandbur ([7]; Postemergence, 16 g ai/ha): 60 | Plant response rating, Sandbur ([7]; Postemergence, 31 g ai/ha): 60 | Plant response rating, Sandbur ([7]; Postemergence, 62 g ai/ha): 70 | Plant response rating, Sandbur ([7]; Postemergence, 125 g ai/ha): 85 | Plant response rating, Sandbur ([7]; Preemergence, 16 g ai/ha): 30 | Plant response rating, Sandbur ([7]; Preemergence, 31 g ai/ha): 75 | Plant response rating, Sandbur ([7]; Preemergence, 62 g ai/ha): 85 | Plant response rating, Sandbur ([7]; Preemergence, 125 g ai/ha): 90 | Plant response rating, Morningglory ([8]; 16 g ai/ha): 10 | Plant response rating, Morningglory ([8]; 31 g ai/ha): 20 | Plant response rating, Morningglory ([8]; 62 g ai/ha): 60 | Plant response rating, Morningglory ([8]; 125 g ai/ha): 100 | AMAPA plant response rating, 0 to 100 scale ([9]; postemergence, 8 g a.i./ha): 28 | AMAPA plant response rating, 0 to 100 scale ([9]; postemergence, 16 g a.i./ha): 38 | AMAPA plant response rating, 0 to 100 scale ([9]; postemergence, 31 g a.i./ha): 33 | AMAPA plant response rating, 0 to 100 scale ([9]; postemergence, 62 g a.i./ha): 60 | AMAPA plant response rating, 0 to 100 scale ([9]; preemergence, 8 g a.i./ha): 0 | AMAPA plant response rating, 0 to 100 scale ([9]; preemergence, 16 g a.i./ha): 26 | AMAPA plant response rating, 0 to 100 scale ([9]; preemergence, 31 g a.i./ha): 50 | AMAPA plant response rating, 0 to 100 scale ([9]; preemergence, 62 g a.i./ha): 45 | GLXMA plant response rating, 0 to 100 scale ([10]; postemergence, 8 g a.i./ha): 0 | GLXMA plant response rating, 0 to 100 scale ([10]; postemergence, 16 g a.i./ha): 0 | GLXMA plant response rating, 0 to 100 scale ([10]; postemergence, 31 g a.i./ha): 8 | GLXMA plant response rating, 0 to 100 scale ([10]; postemergence, 62 g a.i./ha): 13 | GLXMA plant response rating, 0 to 100 scale ([10]; preemergence, 8 g a.i./ha): 0 | GLXMA plant response rating, 0 to 100 scale ([10]; preemergence, 16 g a.i./ha): 0 | GLXMA plant response rating, 0 to 100 scale ([10]; preemergence, 31 g a.i./ha): 0 | GLXMA plant response rating, 0 to 100 scale ([10]; preemergence, 62 g a.i./ha): 0 | AMBEL plant response rating, 0 to 100 scale ([11]; postemergence, 8 g a.i./ha): 82 | AMBEL plant response rating, 0 to 100 scale ([11]; postemergence, 16 g a.i./ha): 82 | AMBEL plant response rating, 0 to 100 scale ([11]; postemergence, 31 g a.i./ha): 92 | AMBEL plant response rating, 0 to 100 scale ([11]; postemergence, 62 g a.i./ha): 97 | AMBEL plant response rating, 0 to 100 scale ([11]; preemergence, 8 g a.i./ha): 0 | AMBEL plant response rating, 0 to 100 scale ([11]; preemergence, 16 g a.i./ha): 26 | AMBEL plant response rating, 0 to 100 scale ([11]; preemergence, 31 g a.i./ha): 55 | AMBEL plant response rating, 0 to 100 scale ([11]; preemergence, 62 g a.i./ha): 100
